As a reminder, the IC50 is the point on the concentration scale where inhibition reaches its midpoint.

Chain of B-Raf V600E (P15056 whole entry V600E): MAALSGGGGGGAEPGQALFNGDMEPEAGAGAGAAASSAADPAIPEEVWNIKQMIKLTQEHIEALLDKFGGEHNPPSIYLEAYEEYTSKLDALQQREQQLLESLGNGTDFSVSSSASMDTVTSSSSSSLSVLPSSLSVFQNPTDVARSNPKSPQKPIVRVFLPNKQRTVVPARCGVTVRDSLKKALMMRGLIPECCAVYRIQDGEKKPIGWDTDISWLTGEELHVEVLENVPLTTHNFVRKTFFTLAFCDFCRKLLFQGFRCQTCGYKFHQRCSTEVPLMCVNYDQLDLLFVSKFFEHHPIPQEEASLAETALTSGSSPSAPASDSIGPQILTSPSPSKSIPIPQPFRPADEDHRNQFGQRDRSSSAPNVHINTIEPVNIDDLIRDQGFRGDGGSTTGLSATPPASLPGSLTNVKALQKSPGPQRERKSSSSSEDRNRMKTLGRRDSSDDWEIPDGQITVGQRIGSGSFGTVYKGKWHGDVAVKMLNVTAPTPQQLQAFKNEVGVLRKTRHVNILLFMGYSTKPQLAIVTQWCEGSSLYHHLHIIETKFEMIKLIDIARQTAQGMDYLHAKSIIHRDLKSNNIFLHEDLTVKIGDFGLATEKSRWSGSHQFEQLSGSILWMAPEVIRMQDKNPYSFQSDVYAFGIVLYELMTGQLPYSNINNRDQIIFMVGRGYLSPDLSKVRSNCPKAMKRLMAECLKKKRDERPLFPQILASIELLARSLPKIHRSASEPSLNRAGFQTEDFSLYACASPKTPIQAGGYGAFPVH

One assay relates to COLO205 colon adenocarcinoma cells (B-Raf V600E mutation). As to the kind of experiment: COLO205 cell growth inhibition (ATPlite). Type of assay: cell-based. Conditions: Homo sapiens, COLO 205, 72 h, 3 days. The method, then: Compounds are assessed in a variety of cell based assays.
On day 1, cells are counted, then centrifuged in a conical tube for 5 minutes at 1000 rpm.
On day 2, compound at a maximum concentration of 5 mM is serially diluted 1:3 (e.g. 10 μL with 30 μL dimethyl sulfoxide) for a total of 8 point titration with DMSO as a control. A 1 μL aliquot of each dilution point and control is added to 249 μL growth media and 50 μL is added to a well containing cells, providing 10 μM compound at the maximum concentration point. The cells are incubated for 3 days at 37° C. in 5% CO2.
ATPlite is added 25 μL to each well, shake for 2 minutes, and the cells are incubated at room temperature for 10 minutes, then luminescence is read on Safire reader. The measured luminescence correlates directly with cell number, such that the reading as a function of compound concentration is used to determine the IC50 value.
In general terms: Cellular ATP, detected with luciferase, serves as a proxy for viable cell number.
As for `O=C(c1c(F)ccc(NS(=O)(=O)N2CCCC2)c1F)c1c[nH]c2ncc(F)c(NCC3CC3)c12` [Compound P-0016, N-[3-[4-(cyclopropylmethylamino)-5-fluoro-1H-pyrrolo[2,3-b]pyridine-3-carbonyl]-2,4-difluoro-phenyl]pyrrolidine-1-sulfonamide], the IC50 is below 1 µM.
The same measure, in the same setting: in the case of `CC(C)CN(C)S(=O)(=O)Nc1cccc(C(=O)c2c[nH]c3ncc(I)cc23)c1F` [Compound P-0070, 3-[2-fluoro-3-[[isobutyl(methyl)sulfamoyl]amino]benzoyl]-5-iodo-1H-pyrrolo[2,3-b]pyridine] it was above 1 µM; in that of `CCC(C)S(=O)(=O)Nc1cccc(C(=O)c2c[nH]c3ncc(-c4cnc(C5CC5)nc4)cc23)c1F` (centres unmarked) [Compound P-0228, N-[3-[5-(2-cyclopropylpyrimidin-5-yl)-1H-pyrrolo[2,3-b]pyridine-3-carbonyl]-2-fluoro-phenyl]butane-2-sulfonamide], below 1 µM.
Still for that read-out and setting: under `CN(C)S(=O)(=O)Nc1ccc(F)c(C(=O)c2c[nH]c3ncc(-c4ccc(C5(C#N)CC5)cc4)cc23)c1F` [Compound P-0237, 5-[4-(1-cyanocyclopropyl)phenyl]-3-[3-(dimethylsulfamoylamino)-2,6-difluoro-benzoyl]-1H-pyrrolo[2,3-b]pyridine] stands below 1 µM.
`CCN(C)S(=O)(=O)Nc1ccc(F)c(C(=O)c2c[nH]c3ncc(-c4ccc(C5(C#N)CC5)cc4)cc23)c1F` [Compound P-0239, 5-[4-(1-cyanocyclopropyl)phenyl]-3-[3-[[ethyl(methyl)sulfamoyl]amino]-2,6-difluoro-benzoyl]-1H-pyrrolo[2,3-b]pyridine] gave a 50% inhibitory concentration (IC50) below 1 µM.
Same read-out and setting: in the case of `N#CC1(c2ccc(-c3cnc4[nH]cc(C(=O)c5c(F)ccc(NS(=O)(=O)N6CCCC6)c5F)c4c3)cc2)CC1` [Compound P-0248, N-[3-[5-[4-(1-cyanocyclopropyl)phenyl]-1H-pyrrolo[2,3-b]pyridine-3-carbonyl]-2,4-difluoro-phenyl]pyrrolidine-1-sulfonamide] it was below 1 µM.
Compound `O=C(c1c(F)ccc(NS(=O)(=O)N2CCCC2)c1F)c1c[nH]c2ncc(-c3ccncc3)cc12` [Compound P-0273, N-[2,4-difluoro-3-[5-(4-pyridyl)-1H-pyrrolo[2,3-b]pyridine-3-carbonyl]phenyl]pyrrolidine-1-sulfonamide] gave an IC50 below 1 µM.
Still for that read-out and setting: in the case of `Nc1nccc(-c2cnc3[nH]cc(C(=O)c4c(F)ccc(NS(=O)(=O)N5CCCC5)c4F)c3c2)n1` [Compound P-0280, N-[3-[5-(2-aminopyrimidin-4-yl)-1H-pyrrolo[2,3-b]pyridine-3-carbonyl]-2,4-difluoro-phenyl]pyrrolidine-1-sulfonamide] it was below 1 µM.
On the same count and under the same terms, under `O=C(c1c(F)ccc(NS(=O)(=O)N2CCCC2)c1F)c1c[nH]c2ncc(-c3ccnc(N4CCOCC4)c3)cc12` [Compound P-0284, N-[2,4-difluoro-3-[5-(2-morpholino-4-pyridyl)-1H-pyrrolo[2,3-b]pyridine-3-carbonyl]phenyl]pyrrolidine-1-sulfonamide] stands below 1 µM; under `CCN(C)S(=O)(=O)Nc1ccc(F)c(C(=O)c2c[nH]c3ncc(-c4cnc(N(C)C)nc4)cc23)c1F` [Compound P-0292, 5-[2-(dimethylamino)pyrimidin-5-yl]-3-[3-[[ethyl(methyl)sulfamoyl]amino]-2,6-difluoro-benzoyl]-1H-pyrrolo[2,3-b]pyridine], below 1 µM.

In another assay the target is B-Raf V600E (Homo sapiens (Human), UniProt P15056, V600E). In words: B-Raf V600E kinase biochemical activity assay (AlphaScreen, biotin-MEK1 substrate). To be noted: 100 μM ATP. The method, then:
Assays for biochemical and cell based activity are known in the art, for example, as described in PCT publication WO 2007/002433, the disclosure of which is hereby incorporated by reference as it relates to such assays. For example, the biochemical activity IC50 values are determined with respect to inhibition of B-Raf V600E kinase activity or p-Erk kinase activity, where inhibition of phosphorylation of a peptide substrate is measured as a function of compound concentration. Compounds to be tested are diluted in dimethyl sulfoxide to a concentration of 0.1 mM. These are serially diluted 15 μL into 30 μL of dimethyl sulfoxide seven times in 96 well plates for a total of 8 dilution points, and for each dilution point 1 μL is added to a well of an assay plate. Plates are prepared such that each well in a 384 well plate contains 1 μL of compound in 10 μL volume with 0.1 ng Raf enzyme (i.e. any of B-Raf, c-Raf-1 or B-Raf V600E, Upstate Biotechnology or prepared by methods known to one of skill in the art), 50 mM HEPES, pH 7.0, 50 mM NaCl, 2 mM MgCl2, 1 mM MnCl2, 0.01% Tween-20, 1 mM DTT, and 100 nM biotin-MEK1 as substrate. The reaction is started with addition of 10 μL of 200 μM ATP (i.e. final 100 μM ATP). After incubation of the kinase reaction for 45 minutes at room temperature, 5 μL/well of Stop Solution is added (25 mM Hepes pH 7.5, 100 mM EDTA, 0.01% BSA with donor beads (Streptavidin coated beads, Perkin Elmer), acceptor beads (Protein A coated, Perkin Elmer), and anti phosphor MEK1/2 antibody (CellSignal), each at final concentration 10 μg/mL). The plates are incubated for 3 hours at room temperature and read on Envision reader (Perkin Elmer). Phosphorylation of Mek1 results in binding of the anti-phosphor-MEK1/2antibody and association of the donor and acceptor beads such that signal correlates with kinase activity. The signal vs. compound concentration is used to determine the IC50.
For orientation: Bead proximity is the source of the signal in Alpha formats.
Compound `O=C(c1c(F)ccc(NS(=O)(=O)N2CCCC2)c1F)c1c[nH]c2ncc(F)c(NCC3CC3)c12` [Compound P-0016, N-[3-[4-(cyclopropylmethylamino)-5-fluoro-1H-pyrrolo[2,3-b]pyridine-3-carbonyl]-2,4-difluoro-phenyl]pyrrolidine-1-sulfonamide] displayed an IC50 below 0.1 µM.
As to `CCN(C)S(=O)(=O)Nc1ccc(F)c(C(=O)c2c[nH]c3ncc(-c4cnc(N5CCN(C(=O)OC(C)(C)C)CC5)nc4)cc23)c1F` [Compound P-0264, tert-butyl 4-[5-[3-[3-[[ethyl(methyl)sulfamoyl]amino]-2,6-difluoro-benzoyl]-1H-pyrrolo[2,3-b]pyridin-5-yl]pyrimidin-2-yl]piperazine-1-carboxylate], the IC50 is below 0.1 µM.
On the same count and under the same terms, under `O=C(c1c(F)ccc(NS(=O)(=O)N2CCCC2)c1F)c1c[nH]c2ncc(-c3cnc(N4CCOCC4)nc3)cc12` [Compound P-0266, N-[2,4-difluoro-3-[5-(2-morpholinopyrimidin-5-yl)-1H-pyrrolo[2,3-b]pyridine-3-carbonyl]phenyl]pyrrolidine-1-sulfonamide] stands below 0.1 µM; under `CC(=O)N(C)C1CCN(S(=O)(=O)Nc2cccc(C(=O)c3c[nH]c4ncc(-c5cnc(C6CC6)nc5)cc34)c2F)C1` (centres unmarked) [Compound P-0267, N-[1-[[3-[5-(2-cyclopropylpyrimidin-5-yl)-1H-pyrrolo[2,3-b]pyridine-3-carbonyl]-2-fluoro-phenyl]sulfamoyl]pyrrolidin-3-yl]-N-methyl-acetamide], above 0.1 µM.
The compound `COc1ncc(-c2cnc3[nH]cc(C(=O)c4c(F)ccc(NS(=O)(=O)N5CCCC5)c4F)c3c2)s1` [Compound P-0270, N-[2,4-difluoro-3-[5-(2-methoxythiazol-5-yl)-1H-pyrrolo[2,3-b]pyridine-3-carbonyl]phenyl]pyrrolidine-1-sulfonamide] gave a half-inhibitory concentration (IC50) below 0.1 µM.
`CNC1CCN(S(=O)(=O)Nc2cccc(C(=O)c3c[nH]c4ncc(-c5cnc(C6CC6)nc5)cc34)c2F)C1` (centres unmarked) [Compound P-0272, N-[3-[5-(2-cyclopropylpyrimidin-5-yl)-1H-pyrrolo[2,3-b]pyridine-3-carbonyl]-2-fluoro-phenyl]-3-(methylamino)pyrrolidine-1-sulfonamide]: the IC50 is above 0.1 µM.
The same measure, in the same setting: in the case of `O=C(c1c(F)ccc(NS(=O)(=O)N2CCCC2)c1F)c1c[nH]c2ncc(-c3ccnc(OC4CCC4)c3)cc12` [Compound P-0286, N-[3-[5-[2-(cyclobutoxy)-4-pyridyl]-1H-pyrrolo[2,3-b]pyridine-3-carbonyl]-2,4-difluoro-phenyl]pyrrolidine-1-sulfonamide] it was below 0.1 µM; in that of `COC(=O)C(C)S(=O)(=O)Nc1cccc(C(=O)c2c[nH]c3ncc(-c4cnc(C5CC5)nc4)cc23)c1F` (centres unmarked) [Compound P-0291, methyl 2-[[3-[5-(2-cyclopropylpyrimidin-5-yl)-1H-pyrrolo[2,3-b]pyridine-3-carbonyl]-2-fluoro-phenyl]sulfamoyl]propanoate], above 0.1 µM.
On the same count and under the same terms, in the case of `O=C(c1c(F)ccc(NS(=O)(=O)N2CCCC2)c1F)c1c[nH]c2ncc(-c3cc(C(F)(F)F)ncn3)cc12` [Compound P-0294, N-[2,4-difluoro-3-[5-[6-(trifluoromethyl)pyrimidin-4-yl]-1H-pyrrolo[2,3-b]pyridine-3-carbonyl]phenyl]pyrrolidine-1-sulfonamide] it was below 0.1 µM.
The compound `CCN(C)S(=O)(=O)Nc1ccc(F)c(C(=O)c2c[nH]c3ncc(-c4cccc(N(C)C)c4)cc23)c1F` [Compound P-0302, 5-[3-(dimethylamino)phenyl]-3-[3-[[ethyl(methyl)sulfamoyl]amino]-2,6-difluoro-benzoyl]-1H-pyrrolo[2,3-b]pyridine] registered an IC50 below 0.1 µM.
Take `CCN(C)S(=O)(=O)Nc1ccc(F)c(C(=O)c2c[nH]c3ncc(-c4ccc(C(=O)NC5CC5)nc4)cc23)c1F` [Compound P-0312, N-cyclopropyl-5-[3-[3-[[ethyl(methyl)sulfamoyl]amino]-2,6-difluoro-benzoyl]-1H-pyrrolo[2,3-b]pyridin-5-yl]pyridine-2-carboxamide]: the half-maximal inhibitory concentration (IC50) is below 0.1 µM.
Turning to `CN1CCN(c2cc(-c3cnc4[nH]cc(C(=O)c5c(F)ccc(NS(=O)(=O)N6CCCC6)c5F)c4c3)ncn2)CC1` [Compound P-0319, N-[2,4-difluoro-3-[5-[6-(4-methylpiperazin-1-yl)pyrimidin-4-yl]-1H-pyrrolo[2,3-b]pyridine-3-carbonyl]phenyl]pyrrolidine-1-sulfonamide], the concentration for half-maximal inhibition (IC50) was below 0.1 µM.
On the same count and under the same terms, in the case of `C[C@H]1CCN(S(=O)(=O)Nc2ccc(F)c(C(=O)c3c[nH]c4ncc(-c5cnc(C6CC6)nc5)cc34)c2F)C1` [Compound P-0320, (3S)—N-[3-[5-(2-cyclopropylpyrimidin-5-yl)-1H-pyrrolo[2,3-b]pyridine-3-carbonyl]-2,4-difluoro-phenyl]-3-methyl-pyrrolidine-1-sulfonamide] it was above 0.1 µM.

These data come from US20230277534A1 (Plexxikon Inc., priority 2011, published 2023).
